Experimental data from article PMC3983056 (PLoS Pathogens, 2014).
Values joined by “and” are separate entries in the source; they are usually repeats but may differ in a detail not shown here. Identical values can stand only once.

Experiments:
[1] = Human serum binding by equilibrium dialysis, HPLC/mass spectrometry; format: in vitro ADME; settings: read-out: Human serum binding (free fraction)
From the text: (DOCX) Click here for additional data file.

[2] = tested on: latently infected primary CD4 T cells; experiment: Compound-associated cytotoxicity in latently infected cells (Cell Titer Glo); format: cell-based, human; settings: continuous 48 hours, 50% cell viability reduction, three donors, mean ± SD
Procedure: (§1) Total peripheral blood mononuclear cells (PBMCs) were obtained from healthy HIV-negative donors by leukapheresis (AllCells, Inc, Emeryville, CA). Naive CD4+ T cells were purified by negative selection using EasySep magnetic beads (StemCells, Inc, Vancouver, Canada) and cultured in RPMI with 10% fetal bovine serum (FBS), penicillin/streptomycin, 1% nonessential amino acids (Life Technologies, Carlsbad, CA), 1% sodium pyruvate (Life Technologies) and 495 nM beta-mercaptoethanol (Sigma Aldrich, St. Louis, MO) in a 37°C, 5% CO2 incubator. Purified naive CD4+ T cells were activated by incubation with anti-CD3/CD28 magnetic Dynabeads (1 bead: 2 cells ratio, Life Technologies), 1 µg/ml anti-IL-4 (R&D Systems, Minneapolis, MN), 2 µg/ml anti-IL-12p70 antibodies (R&D Systems), and 10 ng/ml TGF-β (R&D Systems) for 3 days, [59]. Following the removal of anti-CD3/CD28 beads and antibodies, cells were maintained in 30 U/ml IL-2 (Life Technologies) for 2 days. Cells were then infected with NL4.3-Luc in the presence of 50 µg/ml DEAE for 3 hours. Cells were maintained in the continued presence of 30 U/ml IL-2 throughout the infection and subsequent rest period with culture medium with fresh IL-2 replaced every 2–3 days. Seven days post-infection, 20 µl of latently infected cells were dispensed into 384 well plates using a MicroFlo dispenser (Biotek Insturments, VT) at 10,000 cells/well containing 100 nl of compound solutions delivered by the Echo acoustic-based liquid dispenser (Labcyte, Sunnyvale, CA). After a 48-hour incubation, 16 µl/well BriteGlo (Promega, Madison, WI) was added and luminescence measured using the Envision plate reader (Perkin Elmer, Waltham, MA). Compound-associated cytotoxicity was determined in latently infected cells in parallel with the virus activation assay. Cells were incubated with compounds for 48 hours at 37°C, and cell viability was determined using Cell Titer Glo reagent (Promega).

[3] = as above; format: cell-based, human; settings: human, latently infected (NL4.3-Luc) primary CD4+ T cells, continuous 48 hours, 50% cell viability reduction, three donors, mean ± SD
Procedure: as §1

[4] = tested on: memory CD4 cells from HIV-infected patients; experiment: Viability of primary memory CD4 cells (Cell TiterGlo, 6 days); format: cell-based, human; settings: memory CD4 cells, tested RMD concentrations (5 and 20 nM, 4 hours), day 6
Procedure: Cell viability was determined using a Cell TiterGlo reagent 6 days after the initiation of treatment and is expressed as a percentage of cell viability relative to control vehicle-treated memory CD4 cells from the same donors. The data represent mean +/− S.D. from three independent donors. (TIF) Click here for additional data file.

[5] = tested on: total class I and II HDAC enzyme activity in resting CD4 T cells; settings: pulse RMD 4 hours, VOR 24 hours, PNB 24 hours, 6 to 48 hours
Procedure: Resting CD4 T cells obtained from HIV-infected patients on suppressive cART were incubated with serial dilutions of HDACi in 96-well plates at 10,000 cells/well for indicated time and then lysed by repeated freezing and thawing. Total cellular HDAC activity was measured using the HDAC-Glo I/II assay kit (Promega) according to the manufacturer's protocol.

[6] = tested on: PBMC cultures from HIV-infected patients; experiment: Cytokine induction in PBMC cultures; format: cell-based, human; settings: RMD treatment, data not shown
From the text: (§2) HIV latency reversing agents that would be suitable for the therapeutic use in vivo should not induce non-specific immune activation.

human HDAC-11 = target: T1, human HDAC-11 (Homo sapiens, UniProt Q96DB2); experiment: HDAC inhibition assay; format: biochemical
T1 construct: purchased Reaction Biology Corporation (Malvern, PA)
T1 sequence (Q96DB2 whole entry): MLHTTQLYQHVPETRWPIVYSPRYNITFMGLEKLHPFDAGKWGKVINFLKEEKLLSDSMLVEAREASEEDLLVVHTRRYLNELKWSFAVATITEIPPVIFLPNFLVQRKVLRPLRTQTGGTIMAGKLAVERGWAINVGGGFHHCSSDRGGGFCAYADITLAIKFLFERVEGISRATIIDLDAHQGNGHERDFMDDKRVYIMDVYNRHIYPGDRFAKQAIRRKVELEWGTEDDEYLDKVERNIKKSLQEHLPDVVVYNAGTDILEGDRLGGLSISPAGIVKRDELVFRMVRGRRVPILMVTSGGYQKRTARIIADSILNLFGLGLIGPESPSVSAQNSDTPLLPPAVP

human HDAC-10 = target: T2, human HDAC-10 (Homo sapiens, UniProt Q969S8); experiment: HDAC inhibition assay; format: biochemical
T2 construct: purchased Reaction Biology Corporation (Malvern, PA)
T2 sequence (Q969S8 whole entry): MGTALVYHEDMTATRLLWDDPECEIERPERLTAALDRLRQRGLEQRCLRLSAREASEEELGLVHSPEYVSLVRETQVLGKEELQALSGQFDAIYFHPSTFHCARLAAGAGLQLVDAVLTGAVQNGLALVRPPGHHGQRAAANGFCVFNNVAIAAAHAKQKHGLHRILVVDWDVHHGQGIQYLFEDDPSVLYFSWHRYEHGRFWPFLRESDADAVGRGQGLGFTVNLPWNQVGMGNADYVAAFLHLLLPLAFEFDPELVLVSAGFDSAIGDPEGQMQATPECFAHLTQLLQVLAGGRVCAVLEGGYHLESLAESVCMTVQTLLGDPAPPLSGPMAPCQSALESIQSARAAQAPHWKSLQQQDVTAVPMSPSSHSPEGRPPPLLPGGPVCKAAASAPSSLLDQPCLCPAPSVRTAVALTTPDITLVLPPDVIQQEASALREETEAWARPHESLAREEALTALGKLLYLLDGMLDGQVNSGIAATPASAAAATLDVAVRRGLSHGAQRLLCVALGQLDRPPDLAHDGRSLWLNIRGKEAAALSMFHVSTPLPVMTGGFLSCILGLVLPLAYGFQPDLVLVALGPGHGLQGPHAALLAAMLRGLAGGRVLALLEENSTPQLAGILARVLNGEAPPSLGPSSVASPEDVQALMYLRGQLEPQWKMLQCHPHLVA
Procedure: (§3) Determination of HDACi potency against individual HDAC enzymes was performed at Reaction Biology Corporation (Malvern, PA). In brief, human HDAC-1 to -11 enzymes were incubated with serial dilutions of HDACi and fluorogenic peptide substrates (50 µM) in a 96-well format assay. […] Fluorogenic peptide Boc-Lys(trifluoroacetyl)-AMC was used as a substrate for HDAC enzymes 4, 5, 7, and 9.

human HDAC-4 = target: T3, human HDAC-4 (Homo sapiens, UniProt P56524); experiment: HDAC inhibition assay; format: biochemical
T3 construct: purchased Reaction Biology Corporation (Malvern, PA)
T3 sequence (P56524 whole entry): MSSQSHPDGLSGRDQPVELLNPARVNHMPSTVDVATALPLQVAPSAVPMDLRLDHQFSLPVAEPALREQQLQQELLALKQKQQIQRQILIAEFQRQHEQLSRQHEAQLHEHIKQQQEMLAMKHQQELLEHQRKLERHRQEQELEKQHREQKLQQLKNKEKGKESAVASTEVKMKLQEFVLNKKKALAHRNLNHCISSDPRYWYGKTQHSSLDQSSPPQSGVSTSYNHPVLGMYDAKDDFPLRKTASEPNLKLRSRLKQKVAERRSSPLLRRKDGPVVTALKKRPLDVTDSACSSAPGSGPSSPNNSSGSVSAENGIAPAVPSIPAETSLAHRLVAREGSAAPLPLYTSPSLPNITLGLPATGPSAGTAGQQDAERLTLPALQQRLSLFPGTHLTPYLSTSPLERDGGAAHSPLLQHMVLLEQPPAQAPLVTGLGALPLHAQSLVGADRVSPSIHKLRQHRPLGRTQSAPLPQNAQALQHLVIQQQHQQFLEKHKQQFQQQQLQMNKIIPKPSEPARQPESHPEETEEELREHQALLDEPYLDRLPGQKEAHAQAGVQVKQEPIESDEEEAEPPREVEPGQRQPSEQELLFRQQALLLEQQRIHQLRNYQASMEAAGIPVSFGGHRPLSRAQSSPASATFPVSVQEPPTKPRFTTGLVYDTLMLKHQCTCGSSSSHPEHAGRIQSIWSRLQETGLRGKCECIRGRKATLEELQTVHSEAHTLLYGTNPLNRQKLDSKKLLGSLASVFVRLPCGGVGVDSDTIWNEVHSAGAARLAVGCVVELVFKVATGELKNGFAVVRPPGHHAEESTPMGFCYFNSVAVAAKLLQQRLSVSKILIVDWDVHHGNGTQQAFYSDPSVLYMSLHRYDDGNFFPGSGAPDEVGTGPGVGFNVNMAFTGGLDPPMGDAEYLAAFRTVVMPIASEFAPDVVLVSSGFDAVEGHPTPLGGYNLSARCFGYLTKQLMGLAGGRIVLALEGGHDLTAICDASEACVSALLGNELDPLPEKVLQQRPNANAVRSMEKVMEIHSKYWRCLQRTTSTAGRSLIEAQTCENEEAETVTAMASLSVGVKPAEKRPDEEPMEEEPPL
Procedure: as §3

human HDAC-1 = target: T4, human HDAC-1 (Homo sapiens, UniProt Q13547); experiment: HDAC inhibition assay; format: biochemical
T4 construct: purchased Reaction Biology Corporation (Malvern, PA)
T4 sequence (Q13547 whole entry): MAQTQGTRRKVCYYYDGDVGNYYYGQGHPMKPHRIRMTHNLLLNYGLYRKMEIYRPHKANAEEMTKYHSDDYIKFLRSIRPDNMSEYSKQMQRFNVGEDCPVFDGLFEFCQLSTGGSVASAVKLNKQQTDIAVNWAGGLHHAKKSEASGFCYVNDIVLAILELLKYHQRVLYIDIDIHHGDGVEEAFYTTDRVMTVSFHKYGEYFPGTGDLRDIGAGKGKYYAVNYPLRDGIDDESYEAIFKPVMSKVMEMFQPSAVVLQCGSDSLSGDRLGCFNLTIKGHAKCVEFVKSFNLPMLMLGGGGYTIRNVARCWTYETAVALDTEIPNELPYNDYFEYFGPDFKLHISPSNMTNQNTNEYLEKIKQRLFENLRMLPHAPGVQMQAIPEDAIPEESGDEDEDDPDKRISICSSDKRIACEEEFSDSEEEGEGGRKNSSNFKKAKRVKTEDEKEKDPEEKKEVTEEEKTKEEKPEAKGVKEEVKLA
Procedure: as §3

[7] = tested on: resting CD4 T cells from cART-suppressed HIV-infected patients; experiment: Cell activation analysis by flow cytometry, isolated resting CD4 T cells; format: cell-based, human; settings: 4-hour pulse RMD
Procedure: The surface expression of CD25 and CD69 in viable CD4 cells was analyzed by flow cytometry. Data are mean ± SD of two independent experiments performed with cells isolated from two HIV-infected patients on suppressive cART.

human HDAC-5 = target: T5, human HDAC-5 (Homo sapiens, UniProt Q9UQL6); experiment: HDAC inhibition assay; format: biochemical
T5 construct: purchased Reaction Biology Corporation (Malvern, PA)
T5 sequence (Q9UQL6 whole entry): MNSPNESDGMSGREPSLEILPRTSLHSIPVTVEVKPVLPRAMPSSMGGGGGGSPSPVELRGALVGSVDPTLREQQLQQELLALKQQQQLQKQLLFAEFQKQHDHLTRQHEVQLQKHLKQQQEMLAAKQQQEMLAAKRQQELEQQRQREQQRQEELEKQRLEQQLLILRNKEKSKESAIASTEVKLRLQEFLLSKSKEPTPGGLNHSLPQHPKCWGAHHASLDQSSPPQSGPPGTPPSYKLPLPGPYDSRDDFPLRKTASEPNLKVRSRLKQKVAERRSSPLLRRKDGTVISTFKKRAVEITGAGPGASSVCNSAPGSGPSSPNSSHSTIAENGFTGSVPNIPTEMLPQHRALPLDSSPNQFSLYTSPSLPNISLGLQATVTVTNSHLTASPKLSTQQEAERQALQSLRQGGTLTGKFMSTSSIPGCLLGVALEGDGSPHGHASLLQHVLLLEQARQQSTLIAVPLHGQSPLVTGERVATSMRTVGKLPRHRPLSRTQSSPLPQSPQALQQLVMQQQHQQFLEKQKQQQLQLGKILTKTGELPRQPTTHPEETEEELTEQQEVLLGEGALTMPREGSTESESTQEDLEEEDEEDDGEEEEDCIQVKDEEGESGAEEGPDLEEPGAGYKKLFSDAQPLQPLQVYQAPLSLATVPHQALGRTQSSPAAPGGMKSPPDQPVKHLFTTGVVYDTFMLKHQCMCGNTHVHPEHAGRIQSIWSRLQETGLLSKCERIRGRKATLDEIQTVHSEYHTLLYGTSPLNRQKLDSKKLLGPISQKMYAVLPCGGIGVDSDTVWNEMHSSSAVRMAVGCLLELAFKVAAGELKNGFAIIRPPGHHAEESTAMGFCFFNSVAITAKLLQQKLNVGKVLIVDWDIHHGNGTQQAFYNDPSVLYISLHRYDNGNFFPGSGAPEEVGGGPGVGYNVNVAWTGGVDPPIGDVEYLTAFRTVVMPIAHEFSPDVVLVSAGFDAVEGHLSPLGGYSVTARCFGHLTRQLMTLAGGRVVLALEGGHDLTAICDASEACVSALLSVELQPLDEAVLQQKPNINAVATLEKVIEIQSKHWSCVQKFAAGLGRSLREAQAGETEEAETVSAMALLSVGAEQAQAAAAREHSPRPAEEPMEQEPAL

[8] = tested on: CD4+ T cells, CD8+ T cells and CD19+ B cells in PBMCs from HIV-infected subjects; experiment: Cell activation analysis by flow cytometry, PBMC cultures; format: cell-based, human; settings: 4-hour pulse of 15 or 40 nM RMD, any cell subset
Procedure: as §2
For cell activation analysis, either complete PBMC cultures or resting CD4+ T cells isolated from HIV-infected cART-suppressed patients were incubated with the tested agents under specified conditions and were stained with relevant antibodies. All antibodies were purchased from BD Biosciences and included Alexa Fluor 700-labeled antibody to CD4, APC-H7-labeled antibody to CD8, PE-Cy7 -labeled antibody to CD19, PE-labeled antibody to CD69, APC-labeled antibody to CD25, and V450-labeled antibody to HLA-DR. Live cells were gated by forward and side scatter and exclusion of the dead cells by Live/Dead Fixable Aqua Stain (Invitrogen). Marker staining was assessed by flow cytometry analysis on a LSR Fortessa with data processing using FlowJo software.

[9] = tested on: latent HIV in resting CD4 T cells from HIV-infected patients on suppressive cART; experiment: Ex vivo release of extracellular HIV RNA into culture supernatants, resting CD4 T cells; format: cell-based
Procedure: HIV-infected patients participating in the study were selected based on sustained plasma viral load suppression (<50 copies/ml for >12 months), CD4 counts (>350 cells/µL), and absence of co-infection with hepatitis B or C virus (Supplementary Table S1). Clinical laboratory results were reconfirmed 2 weeks before leukapheresis or blood draw. Leukapheresis was conducted for 3–4 hours, and samples were processed within 2 hours after collection. The leukapheresis product was diluted 1∶1 with PBS and layered over Ficoll for isolation of PBMCs. […] Resting CD4 T cells were isolated by first enriching total CD4 T cells (StemCell Technologies) and subsequently depleting HLA-DR-, CD25-, and CD69-positive cells via negative selection (Miltenyi Biotec, Auburn, CA).
To assess HIV activation by HDACi, up to 5 million CD4 T cells were plated in 24-well plates in 2.5 ml of media, supplemented with antiretrovirals (ARVs) (100 nM elvitegravir and 100–300 nM efavirenz) for the entire duration of culture incubation. HDACi were added at specified concentrations on day 0 and cells or culture supernatants were harvested for the analysis of HIV RNA at the indicated time points (6–48 hours or 6–7 days, respectively). For HDACi pulse treatment, cultures were washed twice using ARV-containing media at 4 or 24 hours after addition of HDACi and incubated with ARVs until harvest. To measure HIV RNA levels, 1 ml of culture supernatant was analyzed by a robotic COBAS AmpliPrep/TaqMan system (Roche Diagnostics, Indianapolis, IN), which extracts total nucleic acid and quantifies HIV RNA in copies per milliliter using the HIV-1 Test, v2.0 kit (Roche Diagnostics). For the measurement of cell-associated HIV RNA levels, cells were washed with PBS, counted, and lysed (Qiagen RLT buffer, 400 µl for every 2 million cells; Qiagen, Venlo, Netherlands). Lysates were filtered through a Qiashredder (Qiagen). Total RNA was prepared from the lysates (400 µl) using a robotic system (QIAsymphony, Qiagen) that incorporates a DNase I digestion step to eliminate cellular DNA. The resulting total RNA was eluted with 200 µl of buffer, diluted to 1 ml with nuclease-free water, and analyzed by COBAS using the HIV-1 Test v2.0 kit. Preparations of both cell-associated RNA and supernatant total nucleic acids were tested for potential contamination with HIV DNA and/or host DNA by performing the PCR amplification in the presence and absence of reverse transcriptase and by a detection of GAPDH-encoding host DNA sequence.
HIV RNA-induction experiments were conducted using 5 to 6 replicates for every experimental condition, including vehicle-treated controls. Fold induction in HIV RNA levels was calculated as a ratio of mean signals from compound-treated and vehicle (DMSO)-treated control samples from the same donor under identical conditions. […] For experiments using blood-derived resting CD4 T cells, culture supernatants from 3 replicate wells were combined and analyzed using the COBAS system.

In the case of C/C=C1\NC(=O)[C@H]2CSSCC/C=C/[C@H](CC(=O)N[C@H](C(C)C)C(=O)N2)OC(=O)[C@H](C(C)C)NC1=O [RMD, romidepsin], the fraction unbound [1] is reported as 0.08, the CC50 [2] is reported as 107 ± 126 nM and the CC50 at 48 h [3] is reported as 100 nM. For the same compound, the cell viability [4] was “did not substantially affect cell viability”, the “persistence of inhibition of cell-associated HDAC activity” value [5] was “persisted throughout the 48-hour incubation period” and the “induction of IFN-α, IFN-γ, TNF-α, TGF-β, IL-2, IL-7 or other cytokines” value [6] was “no significant induction”. It also gave an IC50 (human HDAC-11) of 0.407 nM, an IC50 (human HDAC-10) of 0.133 nM and an IC50 (human HDAC-4) of 314 nM. For the same compound, the IC50 (human HDAC-1) was 0.102 nM, the “fraction of CD69-positive cells” value [7] was “minimal increases” and the IC50 (human HDAC-5) was 1160 nM. The “expression of CD25 or HLA-DR” value [8] was “did not lead to any changes”, the “HIV RNA” value ([9]; Figure 3C, 2.5 nM RMD, 7 days, one value per donor) was 1205 copies/mL and 20 copies/mL and 2949 copies/mL and 560 copies/mL and 341 copies/mL and 86 copies/mL and 137 copies/mL and the “donors with induced HIV RNA release” value ([9]; resting CD4 T cells, 2.5 nM RMD continuous 6 days) was 6 of 8. For the same compound, the “HIV RNA in culture supernatants, longitudinal samples” value ([9]; resting CD4 T cells, 7 days continuous RMD, high-responding patient, three longitudinal samples) was “robust and reproducible dose-dependent HIV RNA increase” and the “longitudinal samples with concentration-dependent effect on viral expression” value ([9]; resting CD4 T cells, 7 days continuous RMD, low-responding patient) was 2 of 3.
